Reference: the supplement of paper PMC8967900

System: ALL-SIL
Assay: selective drug sensitivity score (sDSS, relative to normal bone marrow) (sDSS (score)); higher = more potent and effective on the cell line relative to normal bone marrow cells
Conditions: 72 h
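Further: ALL cell lines in 384-well plates, five doses spanning 10,000-fold, each plate scaled between vehicle and 100 µmol/L benzalkonium chloride controls, sDSS an adapted area-under-curve metric.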

Compound | selective drug sensitivity score
Oc1ncnc2[nH]ncc12 [Allopurinol] (top concentration 10000 nM) | -0.14
CC(C)n1cnc2c(NCCc3ccc(O)cc3)nc(-c3csc4ccccc34)nc21 [StemRegenin_1] (top concentration 10000 nM) | 3.8
C#Cc1cccc(Nc2ncnc3cc4c(cc23)OCCOCCOCCO4)c1 [Icotinib] (top concentration 10000 nM) | 0.8
CN[C@@H](C)C(=O)N[C@H]1CN(C(=O)CC(C)C)CC[C@H]2CC[C@@H](C(=O)NC(c3ccccc3)c3ccccc3)N2C1=O [AT-406] (top concentration 10000 nM) | -1.26
CC(C)(O)CC(=O)NCCn1ccc2ncnc(Nc3ccc(Oc4cccc(C(F)(F)F)c4)c(Cl)c3)c21 [TAK-285] (top concentration 2500 nM) | 0
COc1cc(C)[nH]c(=O)c1CNC(=O)c1c(C)n([C@H](C)C2CCOCC2)c2ccccc12 [CPI-360] (top concentration 10000 nM) | 0
Cc1cc2c(C(=O)NC[C@H](C)c3ccccc3)c(O)c(O)cc2c(O)c1-c1c(C)cc2c(C(=O)NC[C@H](C)c3ccccc3)c(O)c(O)cc2c1O [Sabutoclax] (top concentration 25000 nM) | 12.2
CC(C)(C)C[C@@H]1N[C@@H](C(=O)N[C@H]2CC[C@H](O)CC2)[C@H](c2cccc(Cl)c2F)[C@]12C(=O)Nc1cc(Cl)ccc12 (top concentration 10000 nM) | -3.34
C[C@@H]1C[C@H]2[C@@H]3CCC4=CC(=O)C=C[C@]4(C)[C@@]3(F)[C@@H](O)C[C@]2(C)[C@@]1(O)C(=O)CO [Dexamethasone] (top concentration 10000 nM) | 18.6

System: CCRF-HSB2
Assay: as above
Conditions: 72 h

Compound | selective drug sensitivity score
Nc1nc2cc(-c3ccc4ncc(C(=O)N5CCOCC5)n4c3)ccc2o1 [Serabelisib] (top concentration 10000 nM) | -1.24
COc1cccc(-c2ccc(NC(=O)C3=C(C(=O)O)CCC3)c(F)c2)c1 [Vidofludimus] (top concentration 10000 nM) | 4
Cc1cccc(-c2nn3c(c2-c2ccnc4ccc(C(N)=O)cc24)CCC3)n1 [Galunisertib] (top concentration 1000 nM) | 0
COc1cc2c(N3CCN(C(=O)Nc4ccc(OC(C)C)cc4)CC3)ncnc2cc1OCCCN1CCCCC1 [Tandutinib] (top concentration 1000 nM) | 0
Cc1c(F)cc(C(=O)NC2CC2)cc1-c1ccc(C(=O)NCC(C)(C)C)cn1 [Losmapimod] (top concentration 10000 nM) | -0.08
Nc1nc(N)c2nc(-c3cccc(O)c3)c(-c3cccc(O)c3)nc2n1 [TG100-115] (top concentration 10000 nM) | 3.9
C[C@]12CC[C@@H]3c4ccc(O)cc4C[C@@H](CCCCCCCCC[S+]([O-])CCCC(F)(F)C(F)(F)F)[C@H]3[C@@H]1CC[C@@H]2O (stereo not given in full) [Fulvestrant] (top concentration 1000 nM) | 0
O=C(Nc1cccnc1)N1CCC(Cc2cccc(Oc3ccc(C(F)(F)F)cn3)c2)CC1 [PF-3845] (top concentration 10000 nM) | 3.26
COc1cc2c(cc1OCCCN1CCCC1)N=C(N)C21CCC1 [A-366] (top concentration 25000 nM) | 0.16
Oc1ncnc2[nH]ncc12 [Allopurinol] (top concentration 10000 nM) | -0.64
CC(C)n1cnc2c(NCCc3ccc(O)cc3)nc(-c3csc4ccccc34)nc21 [StemRegenin_1] (top concentration 10000 nM) | 1.9
C#Cc1cccc(Nc2ncnc3cc4c(cc23)OCCOCCOCCO4)c1 [Icotinib] (top concentration 10000 nM) | 2.6
CN[C@@H](C)C(=O)N[C@H]1CN(C(=O)CC(C)C)CC[C@H]2CC[C@@H](C(=O)NC(c3ccccc3)c3ccccc3)N2C1=O [AT-406] (top concentration 10000 nM) | 1.94
CC(C)(O)CC(=O)NCCn1ccc2ncnc(Nc3ccc(Oc4cccc(C(F)(F)F)c4)c(Cl)c3)c21 [TAK-285] (top concentration 2500 nM) | 0
COc1cc(C)[nH]c(=O)c1CNC(=O)c1c(C)n([C@H](C)C2CCOCC2)c2ccccc12 [CPI-360] (top concentration 10000 nM) | 0
Cc1cc2c(C(=O)NC[C@H](C)c3ccccc3)c(O)c(O)cc2c(O)c1-c1c(C)cc2c(C(=O)NC[C@H](C)c3ccccc3)c(O)c(O)cc2c1O [Sabutoclax] (top concentration 25000 nM) | 16.3
CC(C)(C)C[C@@H]1N[C@@H](C(=O)N[C@H]2CC[C@H](O)CC2)[C@H](c2cccc(Cl)c2F)[C@]12C(=O)Nc1cc(Cl)ccc12 (top concentration 10000 nM) | 9.06
C[C@@H]1C[C@H]2[C@@H]3CCC4=CC(=O)C=C[C@]4(C)[C@@]3(F)[C@@H](O)C[C@]2(C)[C@@]1(O)C(=O)CO [Dexamethasone] (top concentration 10000 nM) | 18.8

System: COG-LL-317
Assay: as above
Conditions: 72 h

Compound | selective drug sensitivity score
Nc1nc2cc(-c3ccc4ncc(C(=O)N5CCOCC5)n4c3)ccc2o1 [Serabelisib] (top concentration 10000 nM) | -1.54
COc1cccc(-c2ccc(NC(=O)C3=C(C(=O)O)CCC3)c(F)c2)c1 [Vidofludimus] (top concentration 10000 nM) | 4.3
Cc1cccc(-c2nn3c(c2-c2ccnc4ccc(C(N)=O)cc24)CCC3)n1 [Galunisertib] (top concentration 1000 nM) | 0
COc1cc2c(N3CCN(C(=O)Nc4ccc(OC(C)C)cc4)CC3)ncnc2cc1OCCCN1CCCCC1 [Tandutinib] (top concentration 1000 nM) | 0.7
Cc1c(F)cc(C(=O)NC2CC2)cc1-c1ccc(C(=O)NCC(C)(C)C)cn1 [Losmapimod] (top concentration 10000 nM) | -0.18
Nc1nc(N)c2nc(-c3cccc(O)c3)c(-c3cccc(O)c3)nc2n1 [TG100-115] (top concentration 10000 nM) | -0.1
C[C@]12CC[C@@H]3c4ccc(O)cc4C[C@@H](CCCCCCCCC[S+]([O-])CCCC(F)(F)C(F)(F)F)[C@H]3[C@@H]1CC[C@@H]2O (stereo not given in full) [Fulvestrant] (top concentration 1000 nM) | 0
O=C(Nc1cccnc1)N1CCC(Cc2cccc(Oc3ccc(C(F)(F)F)cn3)c2)CC1 [PF-3845] (top concentration 10000 nM) | 0.26
COc1cc2c(cc1OCCCN1CCCC1)N=C(N)C21CCC1 [A-366] (top concentration 25000 nM) | 3.06
Oc1ncnc2[nH]ncc12 [Allopurinol] (top concentration 10000 nM) | -0.64
CC(C)n1cnc2c(NCCc3ccc(O)cc3)nc(-c3csc4ccccc34)nc21 [StemRegenin_1] (top concentration 10000 nM) | -0.3
C#Cc1cccc(Nc2ncnc3cc4c(cc23)OCCOCCOCCO4)c1 [Icotinib] (top concentration 10000 nM) | 0
CN[C@@H](C)C(=O)N[C@H]1CN(C(=O)CC(C)C)CC[C@H]2CC[C@@H](C(=O)NC(c3ccccc3)c3ccccc3)N2C1=O [AT-406] (top concentration 10000 nM) | 0.64
CC(C)(O)CC(=O)NCCn1ccc2ncnc(Nc3ccc(Oc4cccc(C(F)(F)F)c4)c(Cl)c3)c21 [TAK-285] (top concentration 2500 nM) | 0
COc1cc(C)[nH]c(=O)c1CNC(=O)c1c(C)n([C@H](C)C2CCOCC2)c2ccccc12 [CPI-360] (top concentration 10000 nM) | 0
Cc1cc2c(C(=O)NC[C@H](C)c3ccccc3)c(O)c(O)cc2c(O)c1-c1c(C)cc2c(C(=O)NC[C@H](C)c3ccccc3)c(O)c(O)cc2c1O [Sabutoclax] (top concentration 25000 nM) | 15.6
CC(C)(C)C[C@@H]1N[C@@H](C(=O)N[C@H]2CC[C@H](O)CC2)[C@H](c2cccc(Cl)c2F)[C@]12C(=O)Nc1cc(Cl)ccc12 (top concentration 10000 nM) | 19.9
C[C@@H]1C[C@H]2[C@@H]3CCC4=CC(=O)C=C[C@]4(C)[C@@]3(F)[C@@H](O)C[C@]2(C)[C@@]1(O)C(=O)CO [Dexamethasone] (top concentration 10000 nM) | 11.3
